Results: ChEMBL document CHEMBL4396913, “Synthesis and biological evaluation of hybrid quinolone-based quaternary ammonium antibacterial agents” (Eur J Med Chem, 2019)
Converted amounts (≈) assume the structure as drawn.

Legend:
[1] = test system: Enterococcus hirae; assay: Bactericidal activity against Enterococcus hirae ATCC 1052 cultured in BHI medium assessed as reduction in bacterial survival incubated for 48 hrs by microbroth dilution method; type: functional; conditions: ATCC 1052, 48 h
[2] = test system: Escherichia coli; assay: Bactericidal activity against Escherichia coli ATCC 8739 cultured in MH medium assessed as reduction in bacterial survival incubated for 48 hrs by microbroth dilution method; type: functional; conditions: ATCC 8739, 48 h
[3] = test system: Staphylococcus aureus; assay: Bactericidal activity against methicillin resistant Staphylococcus aureus 6347 cultured in MH medium assessed as reduction in bacterial survival incubated for 48 hrs by microbroth dilution method; type: functional; conditions: Staphylococcus aureus, 6347, 48 h
[4] = test system: Staphylococcus epidermidis; assay: Antibacterial activity against Staphylococcus epidermidis ATCC 14990 cultured in MH medium assessed as reduction in bacterial growth incubated for 48 hrs by microbroth dilution method; type: functional; conditions: ATCC 14990, 48 h
[5] = test system: Pseudomonas aeruginosa; assay: Antibiofilm activity against Pseudomonas aeruginosa ATCC 9027 assessed as biofilm formation at 0.5 times antibacterial MIC incubated for 24 hrs compound added prior to bacterial biofilm formation by total biomass crystal violet staining-based method relative to control; type: functional
[6] = test system: Staphylococcus aureus; assay: Antibacterial activity against methicillin resistant Staphylococcus aureus N315 cultured in MH medium assessed as reduction in bacterial growth incubated for 48 hrs by microbroth dilution method; type: functional; conditions: N315, 48 h
[7] = test system: Staphylococcus aureus; assay: Antibacterial activity against Staphylococcus aureus ATCC 6538 cultured in MH medium assessed as reduction in bacterial growth incubated for 48 hrs by microbroth dilution method; type: functional; conditions: ATCC 6538, 48 h
[8] = test system: Pseudomonas aeruginosa; assay: Antibiofilm activity against Pseudomonas aeruginosa ATCC 9027 assessed as biofilm formation at antibacterial MIC incubated for 24 hrs compound added prior to bacterial biofilm formation by total biomass crystal violet staining-based method relative to control; type: functional
[9] = test system: Staphylococcus aureus; assay: Bactericidal activity against methicillin resistant Staphylococcus aureus N315 cultured in MH medium assessed as reduction in bacterial survival incubated for 48 hrs by microbroth dilution method; type: functional; conditions: N315, 48 h
[10] = test system: Staphylococcus aureus; assay: Antibiofilm activity against Staphylococcus aureus ATCC 6538 assessed as biofilm formation at antibacterial MIC incubated for 24 hrs compound added prior to bacterial biofilm formation by total biomass crystal violet staining-based method relative to control; type: functional
[11] = test system: Proteus vulgaris; assay: Antibacterial activity against Proteus vulgaris NCTC 4635 cultured in MH medium assessed as reduction in bacterial growth incubated for 48 hrs by microbroth dilution method; type: functional; conditions: NCTC 4635, 48 h
[12] = test system: Serratia marcescens; assay: Bactericidal activity against Serratia marcescens ATCC 12795 cultured in MH medium assessed as reduction in bacterial survival incubated for 48 hrs by microbroth dilution method; type: functional; conditions: ATCC 12795, 48 h
[13] = test system: Staphylococcus aureus; assay: Antibiofilm activity against Staphylococcus aureus ATCC 6538 assessed as biofilm formation at 0.5 times antibacterial MIC incubated for 24 hrs compound added prior to bacterial biofilm formation by total biomass crystal violet staining-based method relative to control; type: functional
[14] = test system: Proteus vulgaris; assay: Bactericidal activity against Proteus vulgaris NCTC 4635 cultured in MH medium assessed as reduction in bacterial survival incubated for 48 hrs by microbroth dilution method; type: functional; conditions: NCTC 4635, 48 h
[15] = test system: Enterococcus hirae; assay: Antibacterial activity against Enterococcus hirae ATCC 1052 cultured in BHI medium assessed as reduction in bacterial growth incubated for 48 hrs by microbroth dilution method; type: functional; conditions: ATCC 1052, 48 h
[16] = test system: Pseudomonas aeruginosa; assay: Biofilm degradation activity against Pseudomonas aeruginosa ATCC 9027 assessed as biofilm formation at antibacterial MIC incubated for 24 hrs compound added post-biofilm formation by total biomass crystal violet staining-based method; type: functional
[17] = test system: Streptococcus pneumoniae; assay: Antibacterial activity against Streptococcus pneumoniae cultured in MH medium assessed as reduction in bacterial growth incubated for 48 hrs by microbroth dilution method; type: functional
[18] = Lipophilicity, log k of the compound at 100 ug/ml by micellar electrokinetic chromatography; type: physicochemical
[19] = test system: Staphylococcus epidermidis; assay: Bactericidal activity against Staphylococcus epidermidis ATCC 14990 cultured in MH medium assessed as reduction in bacterial survival incubated for 48 hrs by microbroth dilution method; type: functional; conditions: ATCC 14990, 48 h
[20] = test system: Pseudomonas aeruginosa; assay: Biofilm degradation activity against Pseudomonas aeruginosa ATCC 9027 assessed as biofilm formation at 4 times antibacterial MIC incubated for 24 hrs compound added post-biofilm formation by total biomass crystal violet staining-based method; type: functional
[21] = test system: Bacillus spizizenii; assay: Antibacterial activity against Bacillus subtilis ATCC 6633 cultured in MH medium assessed as reduction in bacterial growth incubated for 48 hrs by microbroth dilution method; type: functional; conditions: ATCC 6633, 48 h
[22] = test system: Pseudomonas aeruginosa; assay: Antibacterial activity against Pseudomonas aeruginosa ATCC 9027 cultured in MH medium assessed as reduction in bacterial growth incubated for 48 hrs by microbroth dilution method; type: functional; conditions: ATCC 9027, 48 h
[23] = test system: Staphylococcus aureus; assay: Biofilm degradation activity against Staphylococcus aureus ATCC 6538 assessed as biofilm formation at antibacterial MIC incubated for 24 hrs compound added post-biofilm formation by total biomass crystal violet staining-based method; type: functional
[24] = test system: Staphylococcus epidermidis; assay: Antibacterial activity against methicillin resistant Staphylococcus epidermidis ATCC 13199 cultured in MH medium assessed as reduction in bacterial growth incubated for 48 hrs by microbroth dilution method; type: functional; conditions: ATCC 13199, 48 h
[25] = test system: Pseudomonas aeruginosa; assay: Biofilm degradation activity against Pseudomonas aeruginosa ATCC 9027 assessed as biofilm formation at 2 times antibacterial MIC incubated for 24 hrs compound added post-biofilm formation by total biomass crystal violet staining-based method; type: functional
[26] = test system: Serratia marcescens; assay: Antibacterial activity against Serratia marcescens ATCC 12795 cultured in MH medium assessed as reduction in bacterial growth incubated for 48 hrs by microbroth dilution method; type: functional; conditions: ATCC 12795, 48 h
[27] = test system: Pseudomonas aeruginosa; assay: Bactericidal activity against Pseudomonas aeruginosa ATCC 9027 cultured in MH medium assessed as reduction in bacterial survival incubated for 48 hrs by microbroth dilution method; type: functional; conditions: ATCC 9027, 48 h
[28] = test system: Bacillus spizizenii; assay: Bactericidal activity against Bacillus subtilis ATCC 6633 cultured in MH medium assessed as reduction in bacterial survival incubated for 48 hrs by microbroth dilution method; type: functional; conditions: ATCC 6633, 48 h
[29] = test system: Staphylococcus aureus; assay: Biofilm degradation activity against Staphylococcus aureus ATCC 6538 assessed as biofilm formation at 2 times antibacterial MIC incubated for 24 hrs compound added post-biofilm formation by total biomass crystal violet staining-based method; type: functional
[30] = test system: Streptococcus pneumoniae; assay: Bactericidal activity against Streptococcus pneumoniae cultured in MH medium assessed as reduction in bacterial survival incubated for 48 hrs by microbroth dilution method; type: functional
[31] = test system: Staphylococcus aureus; assay: Biofilm degradation activity against Staphylococcus aureus ATCC 6538 assessed as biofilm formation at 4 times antibacterial MIC incubated for 24 hrs compound added post-biofilm formation by total biomass crystal violet staining-based method; type: functional
[32] = test system: Staphylococcus epidermidis; assay: Bactericidal activity against methicillin resistant Staphylococcus epidermidis ATCC 13199 cultured in MH medium assessed as reduction in bacterial survival incubated for 48 hrs by microbroth dilution method; type: functional; conditions: ATCC 13199, 48 h
[33] = test system: Staphylococcus aureus; assay: Antibacterial activity against methicillin resistant Staphylococcus aureus 6347 cultured in MH medium assessed as reduction in bacterial growth incubated for 48 hrs by microbroth dilution method; type: functional; conditions: Staphylococcus aureus, 6347, 48 h
[34] = test system: Staphylococcus aureus; assay: Bactericidal activity against Staphylococcus aureus ATCC 6538 cultured in MH medium assessed as reduction in bacterial survival incubated for 48 hrs by microbroth dilution method; type: functional; conditions: ATCC 6538, 48 h
[35] = test system: Escherichia coli; assay: Antibacterial activity against Escherichia coli ATCC 8739 cultured in MH medium assessed as reduction in bacterial growth incubated for 48 hrs by microbroth dilution method; type: functional; conditions: ATCC 8739, 48 h
[36] = target: T1, DNA gyrase (Escherichia coli) (UniProt P0AES6+P0AES4); assay: Inhibition of Escherichia coli DNA gyrase super-coiling activity using relaxed pNO1 DNA as substrate assessed as enzyme residual activity at 1 uM incubated for 30 mins by fluorescence assay relative to control; type: protein-complex assay
[37] = test system: HEK293; assay: Cytotoxicity against human HEK293 cells assessed as cell viability upto 20 uM incubated for 72 hrs by MTT assay; type: cell-based; conditions: hek293, 72 h
[38] = test system: HEK293; assay: Cytotoxicity against human HEK293 cells assessed as changes in cell morphology upto 20 uM incubated for 72 hrs by MTT assay; type: cell-based; conditions: hek293, 72 h
[39] = target: T1, DNA gyrase (Escherichia coli); assay: Inhibition of Escherichia coli DNA gyrase super-coiling activity using relaxed pNO1 DNA as substrate assessed as enzyme residual activity at 10 uM incubated for 30 mins by fluorescence assay relative to control; type: protein-complex assay

Structure (SMILES)	MBC [2]	MBC [3]	MIC [4]	MIC [6]	MIC [7]	MBC [9]	MIC [11]	MBC [12]	MBC [14]	MIC [15]	MIC [17]	log K [18]	MBC [19]	MIC [21]	MIC [22]	MIC [24]	MIC [26]	MBC [27]	MBC [28]	MBC [32]	further results
CCn1cc(C(=O)O)c(=O)c2cc(F)c(N3CCNC(C)C3)c(F)c21 (configuration not stated) [LOMEFLOXACIN]	0.125 µg/mL (≈ 0.356 µM)	1 µg/mL (≈ 2.85 µM)	1 µg/mL (≈ 2.85 µM)	0.5 µg/mL (≈ 1.42 µM)	1 µg/mL (≈ 2.85 µM)	1 µg/mL (≈ 2.85 µM)	0.008 µg/mL (≈ 0.0228 µM)	0.5 µg/mL (≈ 1.42 µM)	0.008 µg/mL (≈ 0.0228 µM)	128 µg/mL (≈ 364 µM)	16 µg/mL (≈ 45.5 µM)	0.0766	2 µg/mL (≈ 5.69 µM)	0.125 µg/mL (≈ 0.356 µM)	1 µg/mL (≈ 2.85 µM)	0.25 µg/mL (≈ 0.712 µM)	0.5 µg/mL (≈ 1.42 µM)	1 µg/mL (≈ 2.85 µM)	0.125 µg/mL (≈ 0.356 µM)	0.25 µg/mL (≈ 0.712 µM)	MBC [1]: 128 µg/mL (≈ 364 µM); Activity [5]: 6%; Activity [8]: 2%; Activity [10]: 9%; Activity [13]: 63%; Activity [16]: 40%; Activity [20]: 34%; Activity [23]: 58%; Activity [25]: 36%; Activity [29]: 12%; MBC [30]: > 512 µg/mL; Activity [31]: 6%; MIC [33]: 0.5 µg/mL (≈ 1.42 µM); MBC [34]: 1 µg/mL (≈ 2.85 µM); MIC [35]: 0.063 µg/mL (≈ 0.179 µM)
C[C@@H]1CN(c2c(F)c(N)c3c(=O)c(C(=O)O)cn(C4CC4)c3c2F)C[C@H](C)[N+]12CN1C(=N2)C(C(=O)O)=Cc2ccccc21.[Cl-] (some centres not stated)	4 µg/mL	32 µg/mL	8 µg/mL	32 µg/mL	8 µg/mL	128 µg/mL	2 µg/mL	64 µg/mL	2 µg/mL	> 512 µg/mL	> 512 µg/mL	-0.07	8 µg/mL	4 µg/mL	64 µg/mL	16 µg/mL	64 µg/mL	64 µg/mL	4 µg/mL	32 µg/mL	Activity [36]: 73%; Activity [37]: Non-Toxic; Activity [38]: Non-Toxic; Activity [39]: 35%; MIC [33]: 32 µg/mL; MBC [34]: 8 µg/mL; MIC [35]: 4 µg/mL
CCn1cc(C(=O)O)c(=O)c2cc(F)c(N3CCNCC3)nc21 [ENOXACIN]	0.5 µg/mL (≈ 1.56 µM)	1 µg/mL (≈ 3.12 µM)	0.5 µg/mL (≈ 1.56 µM)	1 µg/mL (≈ 3.12 µM)	1 µg/mL (≈ 3.12 µM)	1 µg/mL (≈ 3.12 µM)	0.032 µg/mL (≈ 0.0999 µM)	0.25 µg/mL (≈ 0.78 µM)	0.063 µg/mL (≈ 0.197 µM)	64 µg/mL (≈ 200 µM)	32 µg/mL (≈ 99.9 µM)	0.1564	2 µg/mL (≈ 6.24 µM)	0.125 µg/mL (≈ 0.39 µM)	0.5 µg/mL (≈ 1.56 µM)	0.25 µg/mL (≈ 0.78 µM)	0.25 µg/mL (≈ 0.78 µM)	0.5 µg/mL (≈ 1.56 µM)	0.125 µg/mL (≈ 0.39 µM)	0.25 µg/mL (≈ 0.78 µM)	MBC [1]: 64 µg/mL (≈ 200 µM); Activity [5]: 27%; Activity [8]: 7%; Activity [10]: 29%; Activity [13]: 27%; Activity [16]: 46%; Activity [20]: 49%; Activity [23]: 45%; Activity [25]: 49%; Activity [29]: 28%; MBC [30]: > 512 µg/mL; Activity [31]: 8%; MIC [33]: 0.5 µg/mL (≈ 1.56 µM); MBC [34]: 1 µg/mL (≈ 3.12 µM); MIC [35]: 0.25 µg/mL (≈ 0.78 µM)
